# Measurements taken from article PMC8963254, “Effects of Lysine N-ζ-Methylation in Ultrashort Tetrabasic Lipopeptides (UTBLPs) on the Potentiation of Rifampicin, Novobiocin, and Niclosamide in Gram-Negative Bacteria” (Antibiotics, 2022).
# Read-outs that look alike come from different tables or passages of the source.
# How the values were obtained:
# [1] = test system: K. pneumoniae 113250; assay: microbe, parasite or virus in culture; type: cell-based, Klebsiella pneumoniae; settings: 113250, 18 h
# Summary of the method: (§1)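 MIC was determined by broth microdilution following CLSI guidelines. Serially varied compound concentrations were incubated with bacterial inoculum at 5 × 10^5 CFU/mL (final) for 18 h at 37 °C. Growth was scored as turbidity by absorbance at 590 nm.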
# [2] = test system: S. aureus ATCC 29213; type: cell-based, Staphylococcus aureus; settings: ATCC 29213, 18 h
# Experimental: (§2) The in vitro antibacterial activity of the UTBLPs was assessed against wild-type and clinically isolated bacterial strains. To obtain the MIC of the compounds, the microbroth dilution susceptibility assay was performed according to the Clinical and Laboratory Standards Institute (CLSI, Wayne, PA, USA) guidelines and as previously described. Briefly, the compounds at varying concentrations were incubated with bacterial inoculum (5 × 10^5 CFU/mL final concentration) at 37 °C for 18 h. Growth in the form of turbidity was confirmed using an EMax Plus microplate reader (Molecular Devices, San Jose, CA, USA) at 590 nm.
# [3] = test system: MRSA ATCC 33592; type: cell-based, Staphylococcus aureus; settings: ATCC 33592, 18 h
# Experimental: as §2
# [4] = test system: E. faecium ATCC 27270; type: cell-based, Enterococcus faecium
# Experimental: (§3) The synergy of the UTBLPs with various antibiotics was assessed using checkerboard assay as previously described. Briefly, the combination of antibiotic and OMP at varying concentrations were incubated with bacterial inoculum (5 × 10^5 CFU/mL final concentration) at 37 °C for 18 h. Growth in the form of turbidity was confirmed using an EMax Plus microplate reader (Molecular Devices, Union City, CA, USA) at 590 nm. Fractional inhibitory concentration index (FICI) was used to evaluate the interaction between the antibiotic and the OMP. FICI is the sum of the FIC of the antibiotic and the FIC of the OMP. The FIC value is calculated by dividing the MIC of the agents in combination by the MIC of the agent alone. FICI ≤ 0.5 is synergistic, 0.5 < x ≤ 4 is additive, and >4 is antagonistic.
# [5] = test system: E. faecalis ATCC 29212; type: cell-based, Enterococcus faecalis
# Experimental: as §3
# [6] = test system: E. coli 94474; assay: microbe, parasite or virus in culture; type: cell-based, Escherichia coli; settings: 94474, 18 h
# Summary of the method: as §1
# [7] = test system: E. coli 94393; assay: microbe, parasite or virus in culture; type: cell-based, Escherichia coli; settings: 94393, 18 h
# Summary of the method: as §1
# [8] = test system: E. coli ATCC 25922; type: cell-based, Escherichia coli; settings: for MICUTBLP: UTBLP alone
# Experimental: as §3
# [9] = test system: E. coli 94474; type: cell-based, Escherichia coli; settings: for MICUTBLP: UTBLP alone
# Experimental: as §3
# [10] = test system: E. coli 94393; type: cell-based, Escherichia coli; settings: for MICUTBLP: UTBLP alone
# Experimental: as §3
# [11] = test system: A. baumannii ATCC 17978; type: cell-based, Acinetobacter baumannii; settings: ATCC 17978, 18 h
# Experimental: as §2
# [12] = test system: E. coli ATCC 25922; type: cell-based, Escherichia coli; settings: ATCC 25922, 18 h
# Experimental: as §2
# [13] = test system: A. baumannii AB027; type: cell-based, Acinetobacter baumannii; settings: for MICUTBLP: UTBLP alone
# Summary of the method: (§4)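 Values derive from a two-agent checkerboard with an 18 h, 37 °C incubation. FICI cut-offs: ≤0.5 synergy, 0.5–4 additive, >4 antagonism.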
# [14] = test system: A. baumannii 92247; type: cell-based, Acinetobacter baumannii; settings: for MICUTBLP: UTBLP alone
# Summary of the method: as §4
# [15] = test system: MSSE 81388; type: cell-based, Staphylococcus epidermidis; settings: 18 h
# Experimental: as §2
# [16] = test system: MRSE 61589; type: cell-based, Staphylococcus epidermidis; settings: 61589, 18 h
# Experimental: as §2
# [17] = UTBLP alone, plate with chloramphenicol
# [18] = UTBLP in combination with chloramphenicol
# [19] = chloramphenicol in combination with the UTBLP
# [20] = UTBLP in combination with novobiocin
# [21] = UTBLP in combination with rifampicin
# [22] = novobiocin in combination with the UTBLP
# [23] = rifampicin in combination with the UTBLP
structure (smiles),measurement,setting,value
CCCCCCCC(=O)N[C@@H](CCCCN(C)C)C(=O)NCCCN(CCCNC(=O)[C@H](CCCCN(C)C)NC(=O)CCCCCCC)CC(=O)N[C@@H](CCCCN(C)C)C(N)=O [UTBLP 3],MIC,[1],> 128 µg/mL
same,MIC,[2],>128 µg/mL
same,MIC,[3],>128 µg/mL
same,Interpretation,[4]; UTBLP + chloramphenicol,Additive (0.5 < x ≤ 4 is additive)
same,MICUTBLP,[4]; [17],> 128 µg/mL
same,MICUTBLP [MICcombo],[4]; [18],0.25 µg/mL
same,MICchloramphenicol [MICcombo],[4]; [19],8 µg/mL
same,Interpretation,[5]; UTBLP + chloramphenicol,Additive (0.5 < x ≤ 4 is additive)
same,MICUTBLP,[5]; [17],> 128 µg/mL
same,MICUTBLP [MICcombo],[5]; [18],0.25 µg/mL
same,MICchloramphenicol [MICcombo],[5]; [19],8 µg/mL
same,MIC,[6],> 128 µg/mL
same,MIC,[7],> 128 µg/mL
same,Interpretation,[8]; UTBLP + chloramphenicol,Additive (0.5 < x ≤ 4 is additive)
same,Interpretation,[8]; UTBLP + niclosamide,Synergy (FICI ≤ 0.5 is synergistic)
same,Interpretation,[8]; UTBLP + novobiocin,Synergy (FICI ≤ 0.5 is synergistic)
same,Interpretation,[8]; UTBLP + rifampicin,Synergy (FICI ≤ 0.5 is synergistic)
same,MICUTBLP,[8]; plate with chloramphenicol,> 128 µg/mL
same,MICUTBLP,[8]; plate with niclosamide,> 128 µg/mL
same,MICUTBLP,[8]; plate with novobiocin,> 128 µg/mL
same,MICUTBLP,[8]; plate with rifampicin,> 128 µg/mL
same,MICUTBLP [MICcombo],[8]; [18],0.5 µg/mL
same,MICUTBLP [MICcombo],[8]; UTBLP in combination with niclosamide,16 µg/mL
same,MICUTBLP [MICcombo],[8]; [20],16 µg/mL
same,MICUTBLP [MICcombo],[8]; [21],16 µg/mL
same,MICantibiotic [MICcombo],[8]; [19],2 µg/mL
same,MICantibiotic [MICcombo],[8]; niclosamide in combination with the UTBLP,8 µg/mL
same,MICantibiotic [MICcombo],[8]; [22],4 µg/mL
same,MICantibiotic [MICcombo],[8]; [23],1 µg/mL
same,Interpretation,[9]; UTBLP + novobiocin,Synergy (FICI ≤ 0.5 is synergistic)
same,Interpretation,[9]; UTBLP + rifampicin,Additive (0.5 < x ≤ 4 is additive)
same,MICUTBLP,[9]; plate with novobiocin,> 128 µg/mL
same,MICUTBLP,[9]; plate with rifampicin,> 128 µg/mL
same,MICUTBLP [MICcombo],[9]; [20],16 µg/mL
same,MICUTBLP [MICcombo],[9]; [21],16 µg/mL
same,MICantibiotic [MICcombo],[9]; [22],32 µg/mL
same,MICantibiotic [MICcombo],[9]; [23],2 µg/mL
same,Interpretation,[10]; UTBLP + novobiocin,Synergy (FICI ≤ 0.5 is synergistic)
same,Interpretation,[10]; UTBLP + rifampicin,Synergy (FICI ≤ 0.5 is synergistic)
same,MICUTBLP,[10]; plate with novobiocin,> 128 µg/mL
same,MICUTBLP,[10]; plate with rifampicin,> 128 µg/mL
same,MICUTBLP [MICcombo],[10]; [20],16 µg/mL
same,MICUTBLP [MICcombo],[10]; [21],16 µg/mL
same,MICantibiotic [MICcombo],[10]; [22],8 µg/mL
same,MICantibiotic [MICcombo],[10]; [23],1 µg/mL
same,MIC,[11],>128 µg/mL
same,MIC,[12],>128 µg/mL
same,Interpretation,[13]; UTBLP + novobiocin,Synergy (FICI ≤ 0.5 is synergistic)
same,Interpretation,[13]; UTBLP + rifampicin,Additive (0.5 < x ≤ 4 is additive)
same,MICUTBLP,[13]; plate with novobiocin,> 128 µg/mL
same,MICUTBLP,[13]; plate with rifampicin,> 128 µg/mL
same,MICUTBLP [MICcombo],[13]; [20],16 µg/mL
same,MICUTBLP [MICcombo],[13]; [21],4 µg/mL
same,MICantibiotic [MICcombo],[13]; [22],2 µg/mL
same,MICantibiotic [MICcombo],[13]; [23],0.5 µg/mL
same,Interpretation,[14]; UTBLP + novobiocin,Synergy (FICI ≤ 0.5 is synergistic)
same,Interpretation,[14]; UTBLP + rifampicin,Synergy (FICI ≤ 0.5 is synergistic)
same,MICUTBLP,[14]; plate with novobiocin,> 128 µg/mL
same,MICUTBLP,[14]; plate with rifampicin,> 128 µg/mL
same,MICUTBLP [MICcombo],[14]; [20],8 µg/mL
same,MICUTBLP [MICcombo],[14]; [21],16 µg/mL
same,MICantibiotic [MICcombo],[14]; [22],1 µg/mL
same,MICantibiotic [MICcombo],[14]; [23],0.25 µg/mL
same,MIC,[15],> 128 µg/mL
same,MIC,[16],> 128 µg/mL
